# Legend:
# Assay type in all cases: functional
# [1] = system: Escherichia coli; test: Antibacterial activity against Escherichia coli ATCC 0111 incubated at room temperature for 30 mins followed by incubation at 37 degC for 12 hrs by two-fold dilution method
# [2] = system: Aspergillus niger; test: Antifungal activity against Aspergillus niger R330 incubated at room temperature for 30 mins followed by incubation at 32 degC for 12 hrs by two-fold dilution method
# [3] = system: Staphylococcus aureus; test: Antibacterial activity against Staphylococcus aureus 209P incubated at room temperature for 30 mins followed by incubation at 37 degC for 12 hrs by two-fold dilution method
# [4] = system: Candida albicans; test: Antifungal activity against Candida albicans FIM709 incubated at room temperature for 30 mins followed by incubation at 32 degC for 12 hrs by two-fold dilution method
Structure (SMILES),MIC [1] [µg/mL],MIC [2] [µg/mL],MIC [3] [µg/mL],MIC [4] [µg/mL]
CO[C@@H]1[C@H](O)[C@@H](C)O[C@@H](OC[C@H]2/C=C/CCC(=O)[C@H](C)C[C@H](C)[C@H](O[C@@H]3O[C@H](C)C[C@@]4(OC(=O)O[C@H]4C)[C@H]3O)[C@@H](C)/C=C/C(=O)O[C@@H]2C)[C@@H]1OC,> 500,> 500,32,> 500
CO[C@@H]1[C@H](O)[C@@H](C)O[C@@H](OC[C@H]2[C@@H]3O[C@H]3CCC(=O)[C@@](C)(O)C[C@H](C)[C@H](O[C@@H]3O[C@H](C)C[C@](O)([C@H](C)O)[C@H]3O)[C@@H](C)/C=C/C(=O)O[C@@H]2C)[C@@H]1OC,> 1000,> 1000,500,> 1000
NC[C@H]1O[C@H](O[C@H]2[C@H](O)[C@@H](O[C@H]3O[C@H](CO)[C@@H](O)[C@H](N)[C@H]3O)[C@H](N)C[C@@H]2N)[C@H](N)C[C@@H]1O [TOBRAMYCIN],2,–,0.2,–
CO[C@@H]1[C@H](O)[C@@H](C)O[C@@H](OC[C@H]2/C=C/C=C/C(=O)[C@@](C)(O)C[C@H](C)[C@H](O[C@@H]3O[C@H](C)C[C@](O)([C@H](C)O)[C@H]3O)[C@@H](C)/C=C/C(=O)O[C@@H]2C)[C@@H]1OC,> 500,> 500,16,> 500
CO[C@@H]1[C@H](O)[C@@H](C)O[C@@H](OC[C@H]2[C@@H]3O[C@H]3/C=C/C(=O)[C@@](C)(O)C[C@H](C)[C@H](O[C@@H]3O[C@H](C)C[C@H](OC)[C@H]3O)[C@@H](C)/C=C/C(=O)O[C@@H]2C)[C@@H]1OC,> 500,> 500,4,> 500
C[C@@H]1C[C@@H]([C@H](O)CC2CC(=O)NC(=O)C2)C(=O)[C@@H](C)C1 [CYCLOHEXIMIDE],–,32,–,64

# Now from value to molecule:
MIC [1] [µg/mL],MIC [2] [µg/mL],MIC [3] [µg/mL],MIC [4] [µg/mL],Structure (SMILES)
> 500,> 500,500,> 500,CO[C@@H]1[C@H](O)[C@@H](C)O[C@@H](OC[C@H]2/C=C/CCC(=O)[C@H](C)C[C@H](C)[C@H](O[C@@H]3O[C@H](C)C[C@](O)([C@H](C)O)[C@H]3O)[C@@H](C)/C=C/C(=O)O[C@@H]2C)[C@@H]1OC
> 500,> 500,32,> 500,CO[C@@H]1[C@H](O)[C@@H](C)O[C@@H](OC[C@H]2/C=C/CCC(=O)[C@@](C)(O)C[C@H](C)[C@H](O[C@@H]3O[C@H](C)C[C@](O)([C@H](C)O)[C@H]3O)[C@@H](C)/C=C/C(=O)O[C@@H]2C)[C@@H]1OC
> 1000,> 1000,125,> 1000,CO[C@@H]1[C@H](O)[C@@H](C)O[C@@H](OC[C@H]2/C=C/C=C/C(=O)[C@H](C)C[C@H](C)[C@H](O[C@@H]3O[C@H](C)C[C@](O)([C@H](C)O)[C@H]3O)[C@@H](C)/C=C/C(=O)O[C@@H]2C)[C@@H]1OC
> 1000,> 1000,> 1000,> 1000,CO[C@@H]1[C@H](O)[C@@H](C)O[C@@H](OC[C@H]2[C@@H]3O[C@H]3CCC(=O)[C@H](C)C[C@H](C)[C@H](O[C@@H]3O[C@H](C)C[C@](O)([C@H](C)O)[C@H]3O)[C@@H](C)/C=C/C(=O)O[C@@H]2C)[C@@H]1OC
